Active and inactive are the calls of the source. For most assays here, no stated cut-off is given here; in the data, actives have a measured Kd and inactives only a lower limit.
Columns and labels:
[1] = biological target: AP2-associated protein kinase 1 (Homo sapiens, UniProt Q2M2I8)
[2] = biological target: Mitogen-activated protein kinase 10 (Homo sapiens, UniProt P53779)
[3] = biological target: cAMP-dependent protein kinase type II-alpha regulatory subunit (Homo sapiens, UniProt P13861)
[4] = biological target: T1, Glycogen phosphorylase, brain form (Homo sapiens, UniProt P11216)
T1 sequence (P11216 whole entry): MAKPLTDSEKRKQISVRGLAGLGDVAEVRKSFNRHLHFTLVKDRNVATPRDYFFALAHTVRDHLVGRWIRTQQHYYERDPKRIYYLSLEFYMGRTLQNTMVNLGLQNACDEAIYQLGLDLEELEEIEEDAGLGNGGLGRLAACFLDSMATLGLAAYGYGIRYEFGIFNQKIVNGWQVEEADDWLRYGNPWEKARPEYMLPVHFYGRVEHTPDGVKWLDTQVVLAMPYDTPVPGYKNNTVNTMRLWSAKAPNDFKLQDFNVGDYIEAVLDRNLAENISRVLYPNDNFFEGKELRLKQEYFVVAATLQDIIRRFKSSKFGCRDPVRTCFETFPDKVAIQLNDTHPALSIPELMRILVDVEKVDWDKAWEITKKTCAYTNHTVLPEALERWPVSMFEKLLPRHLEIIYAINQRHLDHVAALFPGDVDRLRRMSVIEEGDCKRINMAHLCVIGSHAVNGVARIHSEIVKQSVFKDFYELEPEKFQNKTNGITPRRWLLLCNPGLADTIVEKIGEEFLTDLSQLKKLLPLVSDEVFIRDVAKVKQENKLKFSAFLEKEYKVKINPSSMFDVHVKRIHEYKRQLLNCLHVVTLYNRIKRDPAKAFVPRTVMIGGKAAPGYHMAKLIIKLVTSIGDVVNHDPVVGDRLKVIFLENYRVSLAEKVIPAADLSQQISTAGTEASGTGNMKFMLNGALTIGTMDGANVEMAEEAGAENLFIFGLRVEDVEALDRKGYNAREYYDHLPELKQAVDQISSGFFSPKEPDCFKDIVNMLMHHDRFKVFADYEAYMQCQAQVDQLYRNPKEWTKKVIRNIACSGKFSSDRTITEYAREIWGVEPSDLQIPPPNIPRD

[5] = biological target: T2, Serine/threonine-protein kinase TAO2 (Homo sapiens, UniProt Q9UL54)
T2 sequence (Q9UL54 whole entry): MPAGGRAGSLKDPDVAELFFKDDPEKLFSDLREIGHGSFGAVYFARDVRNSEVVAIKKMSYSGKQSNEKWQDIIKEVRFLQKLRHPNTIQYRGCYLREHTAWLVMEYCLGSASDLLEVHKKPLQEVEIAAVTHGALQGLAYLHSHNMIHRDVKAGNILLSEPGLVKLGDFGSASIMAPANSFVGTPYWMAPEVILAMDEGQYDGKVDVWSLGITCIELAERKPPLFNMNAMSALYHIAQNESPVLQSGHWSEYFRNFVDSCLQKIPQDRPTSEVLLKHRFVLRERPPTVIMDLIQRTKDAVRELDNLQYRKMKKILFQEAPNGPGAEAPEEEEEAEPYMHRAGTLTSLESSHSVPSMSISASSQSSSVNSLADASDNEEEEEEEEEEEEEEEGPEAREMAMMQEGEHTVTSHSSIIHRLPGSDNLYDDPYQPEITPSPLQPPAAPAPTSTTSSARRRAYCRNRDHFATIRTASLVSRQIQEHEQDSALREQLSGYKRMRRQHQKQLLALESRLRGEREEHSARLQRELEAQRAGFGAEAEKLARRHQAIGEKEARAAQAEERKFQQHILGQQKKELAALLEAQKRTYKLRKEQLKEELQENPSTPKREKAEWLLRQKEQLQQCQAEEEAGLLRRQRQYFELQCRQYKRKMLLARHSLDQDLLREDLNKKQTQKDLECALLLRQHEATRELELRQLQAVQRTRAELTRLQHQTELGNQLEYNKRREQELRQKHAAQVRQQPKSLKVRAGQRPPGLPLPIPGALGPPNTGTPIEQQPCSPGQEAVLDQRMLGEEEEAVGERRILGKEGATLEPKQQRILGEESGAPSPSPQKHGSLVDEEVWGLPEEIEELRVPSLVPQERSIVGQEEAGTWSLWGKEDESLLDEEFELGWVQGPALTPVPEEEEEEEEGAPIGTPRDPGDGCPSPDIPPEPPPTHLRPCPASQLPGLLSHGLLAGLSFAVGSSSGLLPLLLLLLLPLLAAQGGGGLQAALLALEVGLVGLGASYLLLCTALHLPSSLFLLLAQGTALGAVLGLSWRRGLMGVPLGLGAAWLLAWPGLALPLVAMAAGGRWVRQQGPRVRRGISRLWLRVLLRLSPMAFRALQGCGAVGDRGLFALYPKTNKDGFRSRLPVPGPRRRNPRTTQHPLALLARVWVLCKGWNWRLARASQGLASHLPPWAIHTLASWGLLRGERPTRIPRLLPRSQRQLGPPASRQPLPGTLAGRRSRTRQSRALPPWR

Sequence of AP2-associated protein kinase 1 (Q2M2I8 whole entry): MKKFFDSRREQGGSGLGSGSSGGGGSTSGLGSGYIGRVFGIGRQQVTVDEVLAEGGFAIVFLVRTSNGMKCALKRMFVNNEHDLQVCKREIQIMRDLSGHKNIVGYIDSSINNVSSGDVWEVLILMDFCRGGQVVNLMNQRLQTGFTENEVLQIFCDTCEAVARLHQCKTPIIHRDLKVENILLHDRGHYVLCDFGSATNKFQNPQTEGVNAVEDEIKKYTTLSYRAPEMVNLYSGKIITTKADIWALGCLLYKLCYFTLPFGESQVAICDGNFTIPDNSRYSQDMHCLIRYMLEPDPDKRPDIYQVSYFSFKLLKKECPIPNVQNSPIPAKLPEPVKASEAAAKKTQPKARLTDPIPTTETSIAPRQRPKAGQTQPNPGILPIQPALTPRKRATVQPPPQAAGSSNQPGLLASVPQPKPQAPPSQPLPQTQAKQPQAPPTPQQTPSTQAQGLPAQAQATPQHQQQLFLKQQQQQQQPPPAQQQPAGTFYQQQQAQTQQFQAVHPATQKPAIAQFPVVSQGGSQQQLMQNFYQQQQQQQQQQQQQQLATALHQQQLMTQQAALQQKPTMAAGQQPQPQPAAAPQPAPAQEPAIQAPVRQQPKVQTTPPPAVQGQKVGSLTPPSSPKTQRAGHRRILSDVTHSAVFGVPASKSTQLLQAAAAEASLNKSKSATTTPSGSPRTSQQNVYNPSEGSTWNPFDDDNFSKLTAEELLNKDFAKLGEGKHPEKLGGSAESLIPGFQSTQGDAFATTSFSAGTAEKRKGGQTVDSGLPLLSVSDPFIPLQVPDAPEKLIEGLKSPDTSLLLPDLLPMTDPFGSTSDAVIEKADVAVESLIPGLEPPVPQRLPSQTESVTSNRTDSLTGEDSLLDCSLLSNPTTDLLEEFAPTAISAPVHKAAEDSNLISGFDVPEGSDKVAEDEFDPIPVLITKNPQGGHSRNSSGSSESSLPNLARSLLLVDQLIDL
Sequence of Mitogen-activated protein kinase 10 (P53779 whole entry): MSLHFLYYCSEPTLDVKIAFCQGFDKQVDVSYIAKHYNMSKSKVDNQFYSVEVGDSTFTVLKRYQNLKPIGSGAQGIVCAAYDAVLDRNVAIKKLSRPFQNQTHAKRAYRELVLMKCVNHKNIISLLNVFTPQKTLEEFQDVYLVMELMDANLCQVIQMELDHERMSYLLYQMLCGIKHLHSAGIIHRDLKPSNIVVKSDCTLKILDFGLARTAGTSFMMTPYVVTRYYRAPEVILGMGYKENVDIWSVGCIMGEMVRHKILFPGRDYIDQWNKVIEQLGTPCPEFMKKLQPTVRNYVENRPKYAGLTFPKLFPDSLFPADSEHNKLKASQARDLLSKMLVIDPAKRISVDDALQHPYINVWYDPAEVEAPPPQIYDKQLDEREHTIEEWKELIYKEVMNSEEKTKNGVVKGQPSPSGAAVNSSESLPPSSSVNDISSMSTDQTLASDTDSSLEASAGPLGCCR
Sequence of cAMP-dependent protein kinase type II-alpha regulatory subunit (P13861 whole entry): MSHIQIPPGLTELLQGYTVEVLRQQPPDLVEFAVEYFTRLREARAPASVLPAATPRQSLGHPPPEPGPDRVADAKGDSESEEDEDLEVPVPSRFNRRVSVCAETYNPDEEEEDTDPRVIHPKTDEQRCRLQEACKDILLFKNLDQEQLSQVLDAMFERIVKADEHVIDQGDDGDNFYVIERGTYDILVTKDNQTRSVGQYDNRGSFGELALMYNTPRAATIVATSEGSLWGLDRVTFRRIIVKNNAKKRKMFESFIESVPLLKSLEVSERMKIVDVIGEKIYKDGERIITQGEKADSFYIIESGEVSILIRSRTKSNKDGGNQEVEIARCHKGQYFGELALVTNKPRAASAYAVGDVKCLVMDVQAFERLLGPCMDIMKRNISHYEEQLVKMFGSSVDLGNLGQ

Row | Structure (SMILES) | Kd [1] | Kd [2] | Kd [3] | Kd [4] | Kd [5]
1 | CCc1cnn2c(NCc3ccc[n+]([O-])c3)cc(N3CCCC[C@H]3CCO)nc12 [DINACICLIB] | > 30 µM (inactive) | > 30 µM (inactive) | > 30 µM (inactive) | > 30 µM (inactive) | 2.23 µM (active)
2 | COC(=O)N[C@@H](C)CNc1nccc(-c2cn(C(C)C)nc2-c2cc(Cl)cc(NS(C)(=O)=O)c2F)n1 [ENCORAFENIB] | > 30 µM (inactive) | > 30 µM (inactive) | > 30 µM (inactive) | > 30 µM (inactive) | > 30 µM (inactive)
3 | CO[C@H]1C[C@@H]2CC[C@@H](C)[C@@](O)(O2)C(=O)C(=O)N2CCCC[C@H]2C(=O)O[C@H]([C@H](C)C[C@@H]2CC[C@@H](OCCO)[C@H](OC)C2)CC(=O)[C@H](C)/C=C(\C)[C@@H](O)[C@@H](OC)C(=O)[C@H](C)C[C@H](C)/C=C/C=C/C=C/1C [EVEROLIMUS] | > 30 µM (inactive) | > 30 µM (inactive) | > 30 µM (inactive) | > 30 µM (inactive) | > 30 µM (inactive)
4 | COCCNCc1ccc(-c2cc3nccc(Oc4ccc(NC(=S)NC(=O)Cc5ccc(F)cc5)cc4F)c3s2)nc1 [GLESATINIB] | > 30 µM (inactive) | > 30 µM (inactive) | > 30 µM (inactive) | > 30 µM (inactive) | > 30 µM (inactive)
5 | O=C1NC(=O)/C(=C/c2ccc3nccc(-c4ccncc4)c3c2)S1 [GSK-1059615] | 0.035 µM (active) | > 30 µM (inactive) | > 30 µM (inactive) | > 30 µM (inactive) | > 30 µM (inactive)
6 | CC[C@H](Nc1ncnc2[nH]cnc12)c1nc2cccc(F)c2c(=O)n1-c1ccccc1 [IDELALISIB] | > 30 µM (inactive) | > 30 µM (inactive) | > 30 µM (inactive) | > 30 µM (inactive) | > 30 µM (inactive)
7 | Cn1cc(-c2ccc3nnc(C(F)(F)c4ccc5ncccc5c4)n3n2)cn1 [JNJ-38877605] | > 30 µM (inactive) | > 30 µM (inactive) | > 30 µM (inactive) | > 30 µM (inactive) | > 30 µM (inactive)
8 | COC(=O)[C@@]1(O)C[C@H]2O[C@]1(C)n1c3ccccc3c3c4c(c5c6ccccc6n2c5c31)C(=O)NC4 [K-252A] | 0.005 µM (active) | > 30 µM (inactive) | > 30 µM (inactive) | > 30 µM (inactive) | > 30 µM (inactive)
9 | Cc1c(F)cc(C(=O)NC2CC2)cc1-c1ccc(C(=O)NCC(C)(C)C)cn1 [LOSMAPIMOD] | > 30 µM (inactive) | > 30 µM (inactive) | > 30 µM (inactive) | > 30 µM (inactive) | > 30 µM (inactive)
10 | O=C(O)[C@]1(Cc2cccc(Nc3nccs3)n2)CC[C@@H](Oc2cccc(Cl)c2F)CC1 [MK-5108] | > 30 µM (inactive) | 3.08 µM (active) | > 30 µM (inactive) | > 30 µM (inactive) | > 30 µM (inactive)
11 | C1=C/COCc2cc(ccc2OCCN2CCCC2)Nc2nccc(n2)-c2cccc(c2)COC/1 [PACRITINIB] | 0.042 µM (active) | > 30 µM (inactive) | > 30 µM (inactive) | > 30 µM (inactive) | 3.37 µM (active)
12 | OCCn1cc(-c2cnc3nnn(Cc4ccc5ncccc5c4)c3n2)cn1 [PF-04217903] | > 30 µM (inactive) | > 30 µM (inactive) | > 30 µM (inactive) | > 30 µM (inactive) | > 30 µM (inactive)
13 | CNC(=O)c1cc(Oc2ccc(NC(=O)Nc3ccc(Cl)c(C(F)(F)F)c3)c(F)c2)ccn1 [REGORAFENIB] | > 30 µM (inactive) | > 30 µM (inactive) | > 30 µM (inactive) | > 30 µM (inactive) | > 30 µM (inactive)
14 | COc1cc(OC)c(/C=C/S(=O)(=O)Cc2ccc(OC)c(NCC(=O)O)c2)c(OC)c1 [RIGOSERTIB] | > 30 µM (inactive) | > 30 µM (inactive) | > 30 µM (inactive) | > 30 µM (inactive) | > 30 µM (inactive)
15 | CNC(=O)CN1CCC(Oc2cc3c(Nc4cccc(Cl)c4F)ncnc3cc2OC)CC1 [SAPITINIB] | > 30 µM (inactive) | > 30 µM (inactive) | > 30 µM (inactive) | > 30 µM (inactive) | > 30 µM (inactive)
16 | C[C@@H](c1ccc2nccn2c1)n1nnc2ncc(-c3cnn(C)c3)nc21 [SAVOLITINIB] | > 30 µM (inactive) | > 30 µM (inactive) | > 30 µM (inactive) | > 30 µM (inactive) | > 30 µM (inactive)
17 | CN1CCC(CNc2ccc3ncc(-c4cccc(OC(F)(F)F)c4)n3n2)CC1 [SGI-1776] | > 30 µM (inactive) | > 30 µM (inactive) | > 30 µM (inactive) | > 30 µM (inactive) | > 30 µM (inactive)
18 | C[C@@H]1CN(Cc2ccc(F)cc2)[C@@H](C)CN1C(=O)c1cc2c(C(=O)C(=O)N(C)C)cn(C)c2cc1Cl [TALMAPIMOD] | > 30 µM (inactive) | > 30 µM (inactive) | > 30 µM (inactive) | > 30 µM (inactive) | > 30 µM (inactive)
19 | CN1CCC(COc2cnc(-c3cccc(Cn4nc(-c5cccc(C#N)c5)ccc4=O)c3)nc2)CC1 [TEPOTINIB] | > 30 µM (inactive) | > 30 µM (inactive) | > 30 µM (inactive) | > 30 µM (inactive) | > 30 µM (inactive)
20 | O=c1sn(-c2cccc3ccccc23)c(=O)n1Cc1ccccc1 [TIDEGLUSIB] | > 30 µM (inactive) | > 30 µM (inactive) | > 30 µM (inactive) | > 30 µM (inactive) | > 30 µM (inactive)
21 | COc1cc2nccc(Oc3ccc(NC(=O)Nc4cc(C)on4)c(Cl)c3)c2cc1OC [TIVOZANIB] | > 30 µM (inactive) | > 30 µM (inactive) | > 30 µM (inactive) | > 30 µM (inactive) | > 30 µM (inactive)
22 | CC(=O)Nc1cccc(-n2c(=O)n(C3CC3)c(=O)c3c(Nc4ccc(I)cc4F)n(C)c(=O)c(C)c32)c1 [TRAMETINIB] | > 30 µM (inactive) | > 30 µM (inactive) | > 30 µM (inactive) | > 30 µM (inactive) | > 30 µM (inactive)
23 | CN1N=C(N)c2cn([C@@H]3O[C@H](COP(=O)(O)O)[C@@H](O)[C@H]3O)c3ncnc1c23 [TRICIRIBINE PHOSPHATE] | > 30 µM (inactive) | > 30 µM (inactive) | > 30 µM (inactive) | > 30 µM (inactive) | > 30 µM (inactive)
24 | CC(C)Nc1cc(-c2c[nH]c(C(=O)N[C@H](CO)c3cccc(Cl)c3)c2)c(Cl)cn1 [ULIXERTINIB] | > 30 µM (inactive) | > 30 µM (inactive) | > 30 µM (inactive) | > 30 µM (inactive) | > 30 µM (inactive)
25 | CCCS(=O)(=O)Nc1ccc(F)c(C(=O)c2c[nH]c3ncc(-c4ccc(Cl)cc4)cc23)c1F [VEMURAFENIB] | > 30 µM (inactive) | > 30 µM (inactive) | > 30 µM (inactive) | > 30 µM (inactive) | > 30 µM (inactive)

Source: ChEMBL document CHEMBL3991601, “The target landscape of clinical kinase drugs” (Science, 2017)
